Data: ChEMBL document CHEMBL4152302, “Benzo[d]thiazole-2-carbanilides as new anti-TB chemotypes: Design, synthesis, biological evaluation, and structure-activity relationship” (Eur J Med Chem, 2018)

What was measured:
[1] = Cytotoxicity against mouse RAW264.7 cells assessed as inhibition of cell viability at 50 ug/ml after 72 hrs by MTT assay relative to control; format: cell-based; conditions: read-out: INH
[2] = system: Mycobacterium tuberculosis; assay: Antimycobacterial activity against Mycobacterium tuberculosis H37Rv ATCC 27294 after 28 days by Two-fold serial dilution assay; format: functional; conditions: H37Rv ATCC 27294, 672 h
[3] = Selectivity index, ratio of cytotoxic concentration for mouse RAW264.7 cells to MIC99 for Mycobacterium tuberculosis H37Rv ATCC 27294; format: toxicity; conditions: read-out: Selectivity Index

COc1ccc(NC(=O)c2nc3ccccc3s2)cc1
cytotoxicity at 72 h, 50 ug/ml [1]: 24.6%
MIC [2]: 22 µM

O=C(Nc1ccc(N2CCOCC2)cc1)c1nc2ccccc2s1
cytotoxicity at 72 h, 50 ug/ml [1]: 18.9%
MIC [2]: 4.6 µM

CCOC(=O)c1nc2ccccc2s1
MIC [2]: 121 µM

O=C(Nc1ccccc1)c1nc2ccccc2s1
MIC [2]: 98.3 µM

CCOC(=O)c1nc2cc(Cl)ccc2s1
MIC [2]: 12.9 µM

CCOC(=O)c1nc2cc(C(F)(F)F)ccc2s1
MIC [2]: 22.7 µM

O=C(Nc1cccc(C(F)(F)F)c1)c1nc2cc(Cl)ccc2s1
MIC [2]: 70.1 µM

Cc1cccc(NC(=O)c2nc3cc(C(F)(F)F)ccc3s2)c1
cytotoxicity at 72 h, 50 ug/ml [1]: 34.6%
MIC [2]: 4.64 µM

O=C(Nc1ccc([N+](=O)[O-])cc1)c1nc2cc(Cl)ccc2s1
MIC [2]: 74.9 µM

O=C(Nc1cccc(C(F)(F)F)c1)c1nc2cc(C(F)(F)F)ccc2s1
cytotoxicity at 72 h, 50 ug/ml [1]: 19.8%
MIC [2]: 16 µM

COc1cccc(NC(=O)c2nc3cc(Cl)ccc3s2)c1
cytotoxicity at 72 h, 50 ug/ml [1]: 18.7%
selectivity ratio [3]: 64
MIC [2]: 2.45 µM

O=C(Nc1ccccc1Cl)c1nc2cc(C(F)(F)F)ccc2s1
MIC [2]: 70.1 µM

COc1cc(NC(=O)c2nc3ccccc3s2)cc(OC)c1OC
cytotoxicity at 72 h, 50 ug/ml [1]: 30.1%
selectivity ratio [3]: 64
MIC [2]: 2.26 µM

COc1ccccc1NC(=O)c1nc2cc(Cl)ccc2s1
MIC [2]: 78.4 µM

O=C(Nc1ccc(F)cc1)c1nc2ccccc2s1
MIC [2]: > 91.8 µM

Cc1ccc(NC(=O)c2nc3ccccc3s2)cc1
MIC [2]: 46.6 µM

O=C(Nc1cccc([N+](=O)[O-])c1)c1nc2cc(C(F)(F)F)ccc2s1
MIC [2]: 68.1 µM

COc1ccccc1NC(=O)c1nc2cc(C(F)(F)F)ccc2s1
cytotoxicity at 72 h, 50 ug/ml [1]: 43.2%
MIC [2]: 4.43 µM

O=C(Nc1cccc(F)c1)c1nc2cc(Cl)ccc2s1
cytotoxicity at 72 h, 50 ug/ml [1]: 29.1%
MIC [2]: 5.09 µM

O=C(Nc1ccc(Cl)cc1)c1nc2ccccc2s1
MIC [2]: > 86.6 µM

O=C(Nc1ccccc1N1CCOCC1)c1nc2cc(Cl)ccc2s1
MIC [2]: 66.9 µM

O=C(Nc1ccccc1)c1nc2cc(Cl)ccc2s1
MIC [2]: 86.6 µM

O=C(Nc1ccccc1)c1nc2cc(C(F)(F)F)ccc2s1
MIC [2]: 77.6 µM

O=C(Nc1ccc(N2CCOCC2)c(F)c1)c1nc2cc(Cl)ccc2s1
MIC [2]: 31.9 µM

O=C(Nc1cccc(F)c1)c1nc2cc(C(F)(F)F)ccc2s1
MIC [2]: 36.7 µM

O=C(Nc1cccc(Cl)c1)c1nc2cc(Cl)ccc2s1
MIC [2]: 77.3 µM

COc1cccc(NC(=O)c2nc3cc(C(F)(F)F)ccc3s2)c1
cytotoxicity at 72 h, 50 ug/ml [1]: 26.8%
MIC [2]: 4.43 µM

O=C(Nc1ccc(N2CCOCC2)c(F)c1)c1nc2ccccc2s1
MIC [2]: > 70 µM

Cc1ccccc1NC(=O)c1nc2ccccc2s1
MIC [2]: > 93.2 µM

O=C(Nc1ccc(C(F)(F)F)cc1)c1nc2ccccc2s1
cytotoxicity at 72 h, 50 ug/ml [1]: 13.6%
selectivity ratio [3]: 64
MIC [2]: 2.42 µM

O=C(Nc1ccc([N+](=O)[O-])cc1)c1nc2cc(C(F)(F)F)ccc2s1
cytotoxicity at 72 h, 50 ug/ml [1]: 32.6%
selectivity ratio [3]: 64
MIC [2]: 2.12 µM

O=C(Nc1ccccc1N1CCOCC1)c1nc2cc(C(F)(F)F)ccc2s1
MIC [2]: 30.7 µM

COc1cc(NC(=O)c2nc3cc(Cl)ccc3s2)cc(OC)c1OC
MIC [2]: 66 µM

O=C(Nc1ccc(C(F)(F)F)cc1)c1nc2cc(Cl)ccc2s1
cytotoxicity at 72 h, 50 ug/ml [1]: 41%
MIC [2]: 4.37 µM

O=C(Nc1ccc(C(F)(F)F)cc1)c1nc2cc(C(F)(F)F)ccc2s1
MIC [2]: 64 µM

Cc1cccc(NC(=O)c2nc3cc(Cl)ccc3s2)c1
cytotoxicity at 72 h, 50 ug/ml [1]: 52.2%
MIC [2]: 20.6 µM

O=C(Nc1cccc(C(F)(F)F)c1)c1nc2ccccc2s1
MIC [2]: 38.8 µM

Cc1ccccc1NC(=O)c1nc2cc(C(F)(F)F)ccc2s1
MIC [2]: 74.3 µM

O=C(Nc1ccc([N+](=O)[O-])cc1)c1nc2ccccc2s1
cytotoxicity at 72 h, 50 ug/ml [1]: 35.6%
MIC [2]: 20.9 µM

COc1cccc(NC(=O)c2nc3ccccc3s2)c1
MIC [2]: > 87.9 µM

O=C(Nc1ccc(Br)cc1)c1nc2cc(Cl)ccc2s1
cytotoxicity at 72 h, 50 ug/ml [1]: 53.1%
MIC [2]: 4.24 µM

COc1cc(NC(=O)c2nc3cc(C(F)(F)F)ccc3s2)cc(OC)c1OC
cytotoxicity at 72 h, 50 ug/ml [1]: 23.4%
selectivity ratio [3]: 64
MIC [2]: 1.89 µM

O=C(Nc1cccc(Cl)c1)c1nc2cc(C(F)(F)F)ccc2s1
MIC [2]: 35 µM

O=C(Nc1ccc(Cl)cc1)c1nc2cc(Cl)ccc2s1
cytotoxicity at 72 h, 50 ug/ml [1]: 28.9%
selectivity ratio [3]: 64
MIC [2]: 2.35 µM

O=C(Nc1cccc(F)c1)c1nc2ccccc2s1
cytotoxicity at 72 h, 50 ug/ml [1]: 20.9%
MIC [2]: 22.9 µM

O=C(Nc1ccc(N2CCOCC2)c(F)c1)c1nc2cc(C(F)(F)F)ccc2s1
MIC [2]: 29.4 µM

O=C(Nc1cccc(Cl)c1)c1nc2ccccc2s1
cytotoxicity at 72 h, 50 ug/ml [1]: 26.8%
selectivity ratio [3]: 64
MIC [2]: 2.7 µM

O=C(Nc1ccc(Cl)cc1)c1nc2cc(C(F)(F)F)ccc2s1
cytotoxicity at 72 h, 50 ug/ml [1]: 36.7%
selectivity ratio [3]: 64
MIC [2]: 2.19 µM

O=C(Nc1ccc(N2CCOCC2)cc1)c1nc2cc(Cl)ccc2s1
cytotoxicity at 72 h, 50 ug/ml [1]: 42.3%
selectivity ratio [3]: 64
MIC [2]: 2.09 µM

O=C(Nc1ccccc1C(F)(F)F)c1nc2cc(Cl)ccc2s1
MIC [2]: 70.1 µM

O=C(Nc1ccccc1C(F)(F)F)c1nc2cc(C(F)(F)F)ccc2s1
cytotoxicity at 72 h, 50 ug/ml [1]: 27.8%
selectivity ratio [3]: 64
MIC [2]: 2 µM

COc1ccc(NC(=O)c2nc3cc(Cl)ccc3s2)cc1
MIC [2]: 78.4 µM

Cc1ccc(NC(=O)c2nc3cc(C(F)(F)F)ccc3s2)cc1
cytotoxicity at 72 h, 50 ug/ml [1]: 47.8%
MIC [2]: 4.64 µM

Cc1cc(C)c(NC(=O)c2nc3ccccc3s2)c(C)c1
cytotoxicity at 72 h, 50 ug/ml [1]: 17.9%
MIC [2]: 5.26 µM

O=C(Nc1cccc([N+](=O)[O-])c1)c1nc2cc(Cl)ccc2s1
MIC [2]: 37.5 µM

O=C(Nc1ccc(F)cc1)c1nc2cc(C(F)(F)F)ccc2s1
MIC [2]: 73.5 µM

O=C(Nc1ccccc1Cl)c1nc2cc(Cl)ccc2s1
MIC [2]: 77.3 µM

O=C(Nc1cccc([N+](=O)[O-])c1)c1nc2ccccc2s1
cytotoxicity at 72 h, 50 ug/ml [1]: 38.4%
selectivity ratio [3]: 64
MIC [2]: 2.61 µM

Cc1cccc(NC(=O)c2nc3ccccc3s2)c1
MIC [2]: > 93.2 µM

O=C(Nc1ccc(F)cc1)c1nc2cc(Cl)ccc2s1
cytotoxicity at 72 h, 50 ug/ml [1]: 34.6%
MIC [2]: 5.09 µM

COc1ccccc1NC(=O)c1nc2ccccc2s1
cytotoxicity at 72 h, 50 ug/ml [1]: 16.7%
MIC [2]: 11 µM

Cc1ccc(NC(=O)c2nc3cc(Cl)ccc3s2)cc1
cytotoxicity at 72 h, 50 ug/ml [1]: 22.6%
MIC [2]: 5.15 µM

O=C(Nc1ccc(Br)cc1)c1nc2cc(C(F)(F)F)ccc2s1
MIC [2]: 62.3 µM

Cc1cc(C)c(NC(=O)c2nc3cc(Cl)ccc3s2)c(C)c1
MIC [2]: 75.6 µM

O=C(Nc1ccccc1N1CCOCC1)c1nc2ccccc2s1
MIC [2]: 36.8 µM

O=C(Nc1ccccc1F)c1nc2cc(Cl)ccc2s1
cytotoxicity at 72 h, 50 ug/ml [1]: 18.1%
MIC [2]: 5.09 µM

COc1ccc(NC(=O)c2nc3cc(C(F)(F)F)ccc3s2)cc1
cytotoxicity at 72 h, 50 ug/ml [1]: 35.7%
selectivity ratio [3]: 64
MIC [2]: 2.21 µM

O=C(Nc1ccccc1F)c1nc2cc(C(F)(F)F)ccc2s1
MIC [2]: 73.5 µM

Cc1ccccc1NC(=O)c1nc2cc(Cl)ccc2s1
MIC [2]: 82.6 µM

O=C(Nc1ccccc1C(F)(F)F)c1nc2ccccc2s1
MIC [2]: 38.8 µM

O=C(Nc1ccc(Br)cc1)c1nc2ccccc2s1
MIC [2]: > 75 µM

Cc1cc(C)c(NC(=O)c2nc3cc(C(F)(F)F)ccc3s2)c(C)c1
MIC [2]: 68.6 µM

O=C(Nc1ccccc1F)c1nc2ccccc2s1
cytotoxicity at 72 h, 50 ug/ml [1]: 24.9%
MIC [2]: 11.5 µM

O=C(Nc1ccc(N2CCOCC2)cc1)c1nc2cc(C(F)(F)F)ccc2s1
MIC [2]: 61.4 µM

O=C(Nc1ccccc1Cl)c1nc2ccccc2s1
cytotoxicity at 72 h, 50 ug/ml [1]: 24%
MIC [2]: 5.4 µM

CC[C@@H](CO)NCCN[C@@H](CC)CO [ETHAMBUTOL]
MIC [2]: 1.56 µg/mL

NNC(=O)c1ccncc1 [ISONIAZID]
MIC [2]: 0.098 µg/mL

NC(=O)c1cnccn1 [PYRAZINAMIDE]
MIC [2]: 6.25 µg/mL

CO[C@H]1/C=C/O[C@@]2(C)Oc3c(C)c(O)c4c(O)c(c(/C=N/N5CCN(C)CC5)c(O)c4c3C2=O)NC(=O)/C(C)=C\C=C\[C@H](C)[C@H](O)[C@@H](C)[C@@H](O)[C@@H](C)[C@H](OC(C)=O)[C@@H]1C [RIFAMPIN]
MIC [2]: 0.197 µg/mL
